Data reported in article PMC10187093, “Synthesis, in silico modelling, and in vitro biological evaluation of substituted pyrazole derivatives as potential anti-skin cancer, anti-tyrosinase, and antioxidant agents” (Journal of Enzyme Inhibition and Medicinal Chemistry, 2023).
Read-outs that look alike come from different tables or passages of the source.

Tests used:
SCC-12 = assay: MTT antiproliferative/cytotoxicity assay, SCC-12; assay type: cell-based, human; details: for IC50: non-melanoma, MTT, 48 h, read-out: IC50 SCC-12; for selectivity index (SI) SCC-12: IC50 HaCaT divided by IC50 SCC-12
Method: (§1) Human-derived GFP-expressing melanoma A375 and epidermoid carcinoma A431 cell lines were purchased from Angio-Proteomie (Boston, MA). Human melanoma carcinoma SK-MEL-28 and human immortalised keratinocytes (HaCaT) cell lines were acquired from American Type Culture Collection (ATCC; Manassas, VA). […] The growth media of incubated cells were changed every 2–3 days until they attained 70–80% confluence, after which they were sub-cultured for experiments and re-passaging. DMSO was used as the vehicle to prepare a 10 mM stock solution of the test compounds.
(§2) Stock solutions (10 mM) were prepared by dissolving each compound to be screened in DMSO.

A375 = assay: MTT antiproliferative/cytotoxicity assay, A375; assay type: cell-based, human; details: melanoma, MTT, 48 h, read-out: IC50 A375
Method: (§3) Human-derived GFP-expressing melanoma A375 and epidermoid carcinoma A431 cell lines were purchased from Angio-Proteomie (Boston, MA). Human melanoma carcinoma SK-MEL-28 and human immortalised keratinocytes (HaCaT) cell lines were acquired from American Type Culture Collection (ATCC; Manassas, VA). Human cutaneous SCC cell line SCC-12[192] was generously provided by Dr. James G. Rheinwald to Dr. Tatiana Efimova. Except SK-MEL-28, which was cultured in an RPMI-1640 medium supplemented with 5% FBS, all other human immortalised cell lines were grown and maintained in DMEM containing varying percentages of FBS; 5% FBS for A431, SCC-12, and HaCaT lines, and 10% FBS for A375. All culture media were routinely supplemented with 1% PEST 100X (100 U/mL penicillin, 100 μg/mL streptomycin), and cells were cultured in incubators maintained at 37 °C under an atmosphere of 95% humidity, 20% O2, and 5% CO2. The growth media of incubated cells were changed every 2–3 days until they attained 70–80% confluence, after which they were sub-cultured for experiments and re-passaging. DMSO was used as the vehicle to prepare a 10 mM stock solution of the test compounds.
(§4) Stock solutions (10 mM) were prepared by dissolving each compound to be screened in DMSO. From these stock solutions, escalating concentrations were prepared using the corresponding cell growth media as a diluent, and the cells (65–75% confluent) were treated with (0–40 µM) or without the drug in sext- to octuplicate and incubated for 48 h. All treatment protocols and controls were prepared as previously described.
(§5) The potency and cytotoxicity of the test compounds against two cutaneous melanoma (A375 and SK-MEL-28) and two non-melanoma (A431 and SCC-12) SC cell lines in addition to a control immortalised normal human epidermal keratinocytes (HaCaT) cell line were assessed by MTT assay as previously described.

mushroom tyrosinase = biological target: T1, mushroom tyrosinase (Agaricus bisporus, UniProt C7FF04); assay: In vitro mushroom tyrosinase inhibition assay; assay type: biochemical
T1 construct: purchased Sigma-Aldrich Chemical Company (St. Louis, MO) and MP Biomedicals (Irvine, CA)
T1 sequence (C7FF04 1-392 limits assumed): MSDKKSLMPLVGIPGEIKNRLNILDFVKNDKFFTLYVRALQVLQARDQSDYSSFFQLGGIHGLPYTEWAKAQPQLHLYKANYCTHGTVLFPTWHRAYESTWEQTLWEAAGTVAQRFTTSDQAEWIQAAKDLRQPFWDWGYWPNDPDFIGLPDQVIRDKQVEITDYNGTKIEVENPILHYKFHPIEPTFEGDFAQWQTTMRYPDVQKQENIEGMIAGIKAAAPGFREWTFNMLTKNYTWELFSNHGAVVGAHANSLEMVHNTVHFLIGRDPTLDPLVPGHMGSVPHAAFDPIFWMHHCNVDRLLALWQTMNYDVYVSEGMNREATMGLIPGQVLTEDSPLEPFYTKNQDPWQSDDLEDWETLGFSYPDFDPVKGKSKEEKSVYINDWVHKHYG
Method: The anti-tyrosinase potential of all the synthesised derivatives was determined by an enzymatic tyrosinase inhibition assay based on their ability to inhibit the substrate, L-tyrosine, from binding to the tyrosinase enzyme. […] Test samples were dissolved in DMSO at a concentration of 10 mM and then diluted to different concentrations with phosphate buffer (0.1 M, pH 6.8). Each well contained 40 µL of the sample with 80 µL of phosphate buffer solution (0.1 M, pH 6.8), 40 µL of tyrosinase enzyme (100 units/mL), and 40 µL L-tyrosine (2.5 mM). The mixture was incubated for 30 min at room temperature, and absorbance was measured at 490 nm. Each sample was accompanied by a sample blank containing all components except tyrosinase. […] The percentage of tyrosinase inhibition was calculated as follows: ((ΔAcontrol – ΔAsample)/ΔAcontrol) × 100. IC50 values denoted the sample concentration required to inhibit 50% tyrosinase activity (Table S1).

HaCaT = assay: MTT cytotoxicity assay, noncancerous HaCaT keratinocytes; assay type: cell-based, human; details: Homo sapiens, HaCaT; control noncancerous keratinocytes, MTT, 48 h; read-out: IC50 HaCaT
Method: as §3, §4, §5

GFP-A431 = assay: MTT antiproliferative/cytotoxicity assay, A431; assay type: cell-based, human; details: for IC50: non-melanoma, MTT, 48 h, read-out: IC50 GFP-A431; for selectivity index (SI) A431: IC50 HaCaT divided by IC50 A431
Method: as §1, §2

[1] = DPPH free radical scavenging assay; details: for Percent Scavenging (DPPH): 1 mM; for IC50: N.A. = No Activity, > 1000 = not biologically relevant, read-out: IC50 Value, DPPH antioxidant activity (Table S4)
Method: An initial screen was done of all 25 derivatives at a concentration of 1 mM. […] Methanol was used as the diluent, and 100 µL of DPPH (200 µM; Sigma-Aldrich, St. Louis, MO) was added to each well. […] The scavenging capacity (SC) was calculated as SC% = ((ΔAcontrol – ΔAsample)/ΔAcontrol) × 100%, where ΔAcontrol was the absorbance of the reagent blank, and ΔAsample was the absorbance of the test samples. The control contained all reagents except the compounds, and all tests were performed in triplicate. Quercetin served as a positive control. The DPPH methanolic solution (1 mL) mixed with DMSO (5 µL) served as a negative control.

SK-MEL-28 = assay: MTT antiproliferative/cytotoxicity assay, SK-MEL-28; assay type: cell-based, human; details: melanoma, MTT, 48 h, read-out: IC50 SKMEL-28
Method: as §3, §4, §5

[2] = 500 µM, single-concentration screen, read-out: % Inhibition of tyrosinase
[3] = > 500 = not biologically relevant, read-out: IC50 Value, mushroom tyrosinase inhibition (Table S1)

SMILES	IC50 (SCC-12; Homo sapiens, SCC12, 48 h)	IC50 (A375; Homo sapiens, A-375, 48 h)	inhibition at 500 µM (mushroom tyrosinase; [2])	IC50 (mushroom tyrosinase; [3])	IC50 (HaCaT)	IC50 (GFP-A431; Homo sapiens, A-431, 48 h)	Percent Scavenging (DPPH) [1]	IC50 (SK-MEL-28; Homo sapiens, SK-MEL-28, 48 h)	IC50 [1]	selectivity index (SI) SCC-12 (SCC-12)	selectivity index (SI) A431 (GFP-A431)	further results
Cc1onc2c1CCc1ccccc1-2 [P12, 3-Methyl-4,5-dihydronaphtho[1,2-c]isoxazole]	32.6 ± 2.1 µM	73.5 ± 3.8 µM	69.7 ± 5%	336 µM	32.6 ± 2.4 µM	55.5 ± 3.5 µM	-1.13%	24 ± 2 µM	–	–	–	–
c1ccc(-c2cc(-c3ccccc3)n(-c3ccccc3)n2)cc1 [P13, 1,3,5-Triphenyl-1H-pyrazole]	52.8 ± 2.2 µM	93.4 ± 6.4 µM	7.66%	> 500 µM	91.6 ± 4.1 µM	181 ± 4.7 µM	19.44%	154 ± 2.9 µM	> 1000 µM	–	–	–
Cc1cc(-c2ccccc2)n(-c2ccccc2)n1 [P14, 3-Methyl-1,5-diphenyl-1H-pyrazole]	42.5 ± 2.8 µM	25.8 ± 2.7 µM	97.4 ± 0.2%	–	35.1 ± 2.8 µM	17.8 ± 0.5 µM	-23.93%	33.3 ± 1.7 µM	–	0.8	2.0	IC50 (mushroom tyrosinase; L-tyrosine substrate, read-out: IC50 tyrosinase inhibition): 15.9 µM; DPPH antioxidant activity (in words) [1]: inactive
FC(F)(F)c1cc(-c2ccccc2)n(-c2ccccc2)n1 [P15, 1,5-Diphenyl-3-(trifluoromethyl)-1H-pyrazole]	98 ± 5.5 µM	58.5 ± 3.4 µM	32.2%	> 500 µM	53.7 ± 3.1 µM	42.9 ± 1 µM	-23.36%	36 ± 3.9 µM	–	–	–	–
Cc1cc(-c2ccccc2)n(-c2ccc(Br)cc2)n1 [P16, 1-(4-Bromophenyl)-3-methyl-5-phenyl-1H-pyrazole]	19.6 ± 2 µM	46 ± 1 µM	17.3%	> 500 µM	54.2 ± 3.6 µM	21 ± 1.3 µM	-24.61%	39.1 ± 2.3 µM	–	2.8	2.6	–
Cc1cc(-c2ccccc2)n(-c2ccc(Cl)cc2)n1 [P17, 1-(4-Chlorophenyl)-3-methyl-5-phenyl-1H-pyrazole]	23.4 ± 1.7 µM	44.5 ± 3 µM	95.6 ± 1.1%	165 µM	72.4 ± 6 µM	19.7 ± 0.8 µM	-23.30%	34.2 ± 3.9 µM	–	3.1	3.7	–
COc1ccc(-n2nc(C)cc2-c2ccccc2)cc1 [P18, 1-(4-Methoxyphenyl)-3-methyl-5-phenyl-1H-pyrazole]	21.9 ± 0.2 µM	48 ± 2.1 µM	92.2 ± 3.7%	156 µM	49.6 ± 1.5 µM	25.9 ± 0.9 µM	-24.28%	19.3 ± 2.4 µM	–	2.3	2.0	–
CC1=NN(c2ccccc2)C(=O)C1(C)O (stereo not shown) [P20]	57.3 ± 0.2 µM	110 ± 15.4 µM	39.7%	> 500 µM	47.7 ± 2.7 µM	120 ± 2.6 µM	-20.03%	50 ± 4.3 µM	–	–	–	DPPH antioxidant activity (in words) [1]: no appreciable antioxidant activity
O=C1CC(c2ccccc2)=NN1c1ccccc1 [P21]	–	67.8 ± 2.3 µM	–	–	50.1 ± 6.5 µM	–	73.25%	–	354 µM	–	–	IC50 (SCC-12; Homo sapiens, SCC12): 37.8 ± 3.2 µM; IC50 (mushroom tyrosinase; IC50 Value, mushroom tyrosinase inhibition (Table S1), > 500 = not biologically relevant): 295 µM; inhibition at 500 µM (mushroom tyrosinase; read-out: % Inhibition of tyrosinase, 500 µM, single-concentration screen): 88.9 ± 0.4%; IC50 (GFP-A431; Homo sapiens, A-431): 58.6 ± 2.3 µM; IC50 (SK-MEL-28; Homo sapiens, SK-MEL-28): 42.7 ± 4 µM
O=C1CC(c2ccc(Br)cc2)=NN1c1ccc(Br)cc1 [P22]	19 µM	29 µM	46.9%	> 500 µM	47.6 ± 1.6 µM	13 µM	77.86%	31 µM	276 µM	2.6	3.8	IC50 (SCC-12): 18.7 ± 1.4 µM; IC50 (A375): 28.7 ± 1.2 µM; IC50 (GFP-A431): 12.6 ± 1.6 µM; IC50 (SK-MEL-28): 31.3 ± 2.4 µM
O=C1CC(c2ccc(Br)cc2)=NN1c1ccc(C(F)(F)F)cc1 [P23]	21.7 ± 1.9 µM	31.2 ± 1.5 µM	37.6%	> 500 µM	40.5 ± 1.5 µM	23.9 ± 1 µM	77.61%	27.4 ± 2.3 µM	196 µM	1.9	1.7	–
O=C1CC(c2ccc(Br)cc2)=NN1c1ccccc1 [P24]	141 ± 3.9 µM	56.4 ± 1.7 µM	35.2%	> 500 µM	60.4 ± 3.2 µM	18.6 ± 0.9 µM	75.14%	54.1 ± 1.9 µM	444 µM	0.4	3.3	–
